Reference: the supplement of paper PMC10307832

What was measured:
Assay in all cases: relative viability (nuclei count vs DMSO), 5 days (fraction); higher = more cells survive
Quizartinib + OSI-027 = compound: CC(C)(C)c1cc(NC(=O)Nc2ccc(-c3cn4c(n3)sc3cc(OCCN5CCOCC5)ccc34)cc2)no1 [Quizartinib] + COc1cccc2cc(-c3nc([C@H]4CC[C@H](C(=O)O)CC4)n4ncnc(N)c34)[nH]c12 [OSI-027] (partner 0.5 µM)
How it was run: (§1)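 One day after seeding in 1536-well plates, lung cancer cell lines were dosed by pin tool. Dosing was either single-drug or a fixed anchor-drug dose plus five library-drug doses (not always all listed) in √10 steps. After 5 days, nuclei were stained in one fix-and-stain step and counted on 4× images, and relative viability is the nuclei count of treated wells over that of vehicle wells, given as the median of duplicate plates.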

Quizartinib + Linsitinib = compound: CC(C)(C)c1cc(NC(=O)Nc2ccc(-c3cn4c(n3)sc3cc(OCCN5CCOCC5)ccc34)cc2)no1 [Quizartinib] + C[C@]1(O)C[C@@H](c2nc(-c3ccc4ccc(-c5ccccc5)nc4c3)c3c(N)nccn32)C1 [Linsitinib] (partner 1 µM)
How it was run: as §1

Quizartinib + Phenformin = compound: CC(C)(C)c1cc(NC(=O)Nc2ccc(-c3cn4c(n3)sc3cc(OCCN5CCOCC5)ccc34)cc2)no1 [Quizartinib] + N=C(N)NC(=N)NCCc1ccccc1 [Phenformin] (partner 250 µM)
How it was run: as §1

YM155 + Luminespib = compound: COCC[n+]1c2c(n(Cc3cnccn3)c1C)C(=O)c1ccccc1C2=O [YM155] + CCNC(=O)c1noc(-c2cc(C(C)C)c(O)cc2O)c1-c1ccc(CN2CCOCC2)cc1 [Luminespib] (partner 0.01 µM)
How it was run: as §1

Cell Line	relative viability (Quizartinib + OSI-027; first compound 0.001 µM)	relative viability (Quizartinib + OSI-027; first compound 0.003162 µM)	relative viability (Quizartinib + OSI-027; first compound 0.01 µM)	relative viability (Quizartinib + OSI-027; first compound 0.03162 µM)	relative viability (Quizartinib + OSI-027; first compound 0.1 µM)	relative viability (Quizartinib + Linsitinib; first compound 0.001 µM)	relative viability (Quizartinib + Linsitinib; first compound 0.003162 µM)	relative viability (Quizartinib + Linsitinib; first compound 0.01 µM)	relative viability (Quizartinib + Linsitinib; first compound 0.03162 µM)	relative viability (Quizartinib + Linsitinib; first compound 0.1 µM)	relative viability (Quizartinib + Phenformin; first compound 0.001 µM)	relative viability (Quizartinib + Phenformin; first compound 0.003162 µM)	relative viability (Quizartinib + Phenformin; first compound 0.01 µM)	relative viability (Quizartinib + Phenformin; first compound 0.03162 µM)	relative viability (Quizartinib + Phenformin; first compound 0.1 µM)	relative viability (YM155 + Luminespib; first compound 0.002 µM)	relative viability (YM155 + Luminespib; first compound 0.006325 µM)	relative viability (YM155 + Luminespib; first compound 0.02 µM)	relative viability (YM155 + Luminespib; first compound 0.06325 µM)
201T	0.421	0.691	0.692	0.412	0.615	1.06	1.04	0.969	1.06	1.11	0.472	0.426	0.476	0.408	0.438	1.05	1.06	1.04	1.09
A549	–	–	–	–	–	–	0.49	0.61	0.611	0.787	0.166	0.155	0.201	0.117	0.162	–	–	–	–
A-427	–	0.446	0.437	0.484	0.529	1.04	1.08	1.14	1.04	1.12	–	0.411	0.327	0.256	0.189	0.895	0.965	0.85	0.441
ABC-1	0.428	0.472	0.495	0.383	0.415	0.662	0.732	0.702	0.675	0.722	0.237	0.322	0.227	0.261	0.18	0.439	0.386	0.169	0.256
BEN	0.259	0.326	0.325	0.282	0.284	0.739	0.779	0.903	0.815	0.712	0.271	0.279	0.272	0.243	0.26	0.33	0.728	0.617	0.417
CAL-12T	0.658	0.683	0.862	0.503	0.846	0.744	0.771	0.976	0.882	0.986	0.587	0.533	0.66	0.435	0.39	0.362	0.766	0.414	0.183
COR-L23	0.743	0.73	0.946	0.696	0.768	0.829	0.9	1.05	0.748	0.92	0.419	0.389	0.476	0.37	0.322	0.562	0.378	0.16	0.115
COR-L 105	0.656	0.69	0.649	0.619	0.678	0.704	0.846	1.23	0.733	0.95	0.449	0.495	0.471	0.406	0.426	0.813	0.641	0.57	0.529
Calu-6	–	–	–	–	–	0.975	0.884	0.944	0.959	0.883	–	–	–	–	–	–	–	–	–
ChaGo-K-1	0.574	0.613	0.61	0.514	0.584	–	–	–	–	–	0.516	0.494	0.455	0.443	0.421	0.651	0.509	0.715	0.714
EBC-1	–	–	–	–	–	0.801	0.972	0.956	0.989	0.948	–	–	–	–	–	–	–	–	–
EKVX	0.43	0.691	0.656	0.674	0.728	0.92	1	1.02	0.954	1.1	0.21	0.24	0.238	0.244	0.25	0.847	0.855	0.888	0.724
EMC-BAC-2	0.348	0.397	0.364	–	0.413	0.712	0.748	0.815	0.789	0.838	0.446	0.493	0.552	–	0.525	1.19	1.11	1.12	0.982
EPLC-272H	0.249	0.28	0.264	0.271	0.263	1.01	1.38	1.32	1.32	1.14	0.215	0.342	0.427	0.3	0.207	0.378	0.327	0.186	0.24
H3255	0.502	0.589	0.628	0.62	0.433	0.854	0.826	1.01	0.896	1.06	0.38	0.31	0.383	0.346	0.354	0.752	0.949	0.948	1.02
HARA	–	0.523	0.368	0.423	0.325	0.585	0.906	0.953	0.958	0.974	–	0.453	0.489	0.445	0.386	0.683	0.906	0.95	0.686
